Here are results for four compounds from the NIST ThermoML archive (doi:10.1016/j.jct.2012.12.010).

Numbers after ± are expanded uncertainties.

The conditions of data set [1]: 101 kPa, Liquid; for speed of sound: Linear variable-path acoustic interferometer; for mass density: Pycnometric method.
Data set [2] is described as follows: mn = molality of the nth substance listed, in mol/kg. The following applies: 101 kPa, Liquid, m2 = 0; for speed of sound: Linear variable-path acoustic interferometer; for mass density: Pycnometric method.

Turning to `O` [water], the speed of sound (in general, how fast a sound wave travels through the sample) in data set [1] (275.15 K) stood at 1412.2 ± 2.8 m/s; in data set [1] (279.15 K) it was 1430.6 ± 2.8 m/s; in data set [1] (283.15 K) it was 1447.3 ± 2.8 m/s. The mass density (as a rule, the mass of a sample divided by its volume) in data set [1] (275.15 K) turned out to be 999.94 ± 0.47 kg/m3; in data set [1] (279.15 K), 999.94 ± 0.47 kg/m3; in data set [1] (283.15 K), 999.7 ± 0.46 kg/m3.

Turning to `O` [water] + CC(C)[C@H](N)C(=O)O, the speed of sound in data set [2] (275.15 K) is recorded as 1412.2 ± 2.8 m/s; in data set [2] (279.15 K), 1430.6 ± 2.8 m/s; in data set [2] (283.15 K), 1447.3 ± 2.8 m/s. Further, the mass density is listed as 999.94 ± 0.47 kg/m3 in data set [2] (275.15 K), 999.94 ± 0.47 kg/m3 in data set [2] (279.15 K) and 999.7 ± 0.46 kg/m3 in data set [2] (283.15 K).

Take `O` [water] + C[C@@H](O)[C@H](N)C(=O)O: the speed of sound in data set [2] (275.15 K) amounted to 1412.2 ± 2.8 m/s; in data set [2] (279.15 K), 1430.6 ± 2.8 m/s; in data set [2] (283.15 K), 1447.3 ± 2.8 m/s. The mass density in data set [2] (275.15 K) was 999.94 ± 0.47 kg/m3; in data set [2] (279.15 K) it was 999.94 ± 0.47 kg/m3; in data set [2] (283.15 K), 999.7 ± 0.46 kg/m3.

As for `O` [water] + N=C(N)NCCC[C@H](N)C(=O)O, the values for the speed of sound in data set [2] (275.15 K), in data set [2] (279.15 K) and in data set [2] (283.15 K) were 1412.2 ± 2.8 m/s, 1430.6 ± 2.8 m/s and 1447.3 ± 2.8 m/s, respectively. Moreover, the mass density in data set [2] (275.15 K) was 999.94 ± 0.47 kg/m3; in data set [2] (279.15 K), 999.94 ± 0.47 kg/m3; in data set [2] (283.15 K) it was 999.7 ± 0.46 kg/m3.
